According to the NIST ThermoML archive (doi:10.1016/j.jct.2004.08.003):
± gives the expanded uncertainty stated by the source.

Assays:
[1] = relative permittivity at various frequencies (dimensionless); xn = mol fraction of the nth substance listed; details: 101.3 kPa, Liquid, HP4284A LCR Meter with HP16452A measuring cell
[2] = xn = mol fraction of the nth substance listed; details: 101.3 kPa, Liquid

COCCOCCOCCOC [2,5,8,11-tetraoxadodecane] + CCCCCCCCC
Details	mass density [kg/m3]	relative permittivity
[1], 288.15 K, x1 = 0.0979	–	2.32 ± 0.05
[1], 288.15 K, x1 = 0.1997	–	2.72 ± 0.05
[1], 288.15 K, x1 = 0.2461	–	2.91 ± 0.06
[1], 288.15 K, x1 = 0.2965	–	3.15 ± 0.06
[1], 288.15 K, x1 = 0.3969	–	3.65 ± 0.07
[1], 288.15 K, x1 = 0.5043	–	4.24 ± 0.08
[1], 288.15 K, x1 = 0.6013	–	4.83 ± 0.1
[1], 288.15 K, x1 = 0.6972	–	5.48 ± 0.11
[1], 288.15 K, x1 = 0.7975	–	6.22 ± 0.12
[1], 288.15 K, x1 = 0.8996	–	7.02 ± 0.14
[1], 288.15 K, x1 = 0.9503	–	7.44 ± 0.15
[1], 293.15 K, x1 = 0.0979	–	2.3 ± 0.05
[1], 293.15 K, x1 = 0.1999	–	2.7 ± 0.05
[1], 293.15 K, x1 = 0.2483	–	2.9 ± 0.06
[1], 293.15 K, x1 = 0.2962	–	3.12 ± 0.06
[1], 293.15 K, x1 = 0.3968	–	3.61 ± 0.07
[1], 293.15 K, x1 = 0.5047	–	4.2 ± 0.08
[1], 293.15 K, x1 = 0.6015	–	4.78 ± 0.1
[1], 293.15 K, x1 = 0.6957	–	5.4 ± 0.11
[1], 293.15 K, x1 = 0.7975	–	6.11 ± 0.12
[1], 293.15 K, x1 = 0.8996	–	6.9 ± 0.14
[1], 293.15 K, x1 = 0.951	–	7.31 ± 0.15
[1], 298.15 K, x1 = 0.0975	–	2.3 ± 0.05
[1], 298.15 K, x1 = 0.2091	–	2.72 ± 0.05
[1], 298.15 K, x1 = 0.2569	–	2.92 ± 0.06
[1], 298.15 K, x1 = 0.2955	–	3.08 ± 0.06
[1], 298.15 K, x1 = 0.4035	–	3.61 ± 0.07
[1], 298.15 K, x1 = 0.5005	–	4.13 ± 0.08
[1], 298.15 K, x1 = 0.5944	–	4.67 ± 0.09
[1], 298.15 K, x1 = 0.6956	–	5.32 ± 0.11
[1], 298.15 K, x1 = 0.8007	–	6.04 ± 0.12
[1], 298.15 K, x1 = 0.901	–	6.79 ± 0.14
[1], 298.15 K, x1 = 0.9489	–	7.17 ± 0.14
[1], 303.15 K, x1 = 0.099	–	2.28 ± 0.05
[1], 303.15 K, x1 = 0.2015	–	2.66 ± 0.05
[1], 303.15 K, x1 = 0.2491	–	2.86 ± 0.06
[1], 303.15 K, x1 = 0.297	–	3.06 ± 0.06
[1], 303.15 K, x1 = 0.4001	–	3.56 ± 0.07
[1], 303.15 K, x1 = 0.4967	–	4.06 ± 0.08
[1], 303.15 K, x1 = 0.596	–	4.63 ± 0.09
[1], 303.15 K, x1 = 0.6976	–	5.27 ± 0.11
[1], 303.15 K, x1 = 0.7976	–	5.93 ± 0.12
[1], 303.15 K, x1 = 0.9012	–	6.69 ± 0.13
[1], 303.15 K, x1 = 0.9496	–	7.06 ± 0.14
[1], 308.15 K, x1 = 0.0979	–	2.26 ± 0.05
[1], 308.15 K, x1 = 0.1997	–	2.63 ± 0.05
[1], 308.15 K, x1 = 0.2461	–	2.81 ± 0.06
[1], 308.15 K, x1 = 0.2965	–	3.03 ± 0.06
[1], 308.15 K, x1 = 0.3969	–	3.49 ± 0.07
[1], 308.15 K, x1 = 0.5043	–	4.05 ± 0.08
[1], 308.15 K, x1 = 0.6013	–	4.6 ± 0.09
[1], 308.15 K, x1 = 0.6972	–	5.19 ± 0.1
[1], 308.15 K, x1 = 0.7975	–	5.85 ± 0.12
[1], 308.15 K, x1 = 0.8996	–	6.58 ± 0.13
[1], 308.15 K, x1 = 0.9503	–	6.96 ± 0.14
[1], 318.15 K, x1 = 0.0987	–	2.24 ± 0.05
[1], 318.15 K, x1 = 0.2016	–	2.6 ± 0.05
[1], 318.15 K, x1 = 0.248	–	2.78 ± 0.06
[1], 318.15 K, x1 = 0.2973	–	2.97 ± 0.06
[1], 318.15 K, x1 = 0.4	–	3.43 ± 0.07
[1], 318.15 K, x1 = 0.502	–	3.94 ± 0.08
[1], 318.15 K, x1 = 0.6006	–	4.48 ± 0.09
[1], 318.15 K, x1 = 0.6982	–	5.07 ± 0.1
[1], 318.15 K, x1 = 0.8053	–	5.75 ± 0.12
[1], 318.15 K, x1 = 0.9018	–	6.42 ± 0.13
[1], 318.15 K, x1 = 0.9503	–	6.75 ± 0.14
[1], 328.15 K, x1 = 0.1007	–	2.23 ± 0.04
[1], 328.15 K, x1 = 0.2003	–	2.57 ± 0.05
[1], 328.15 K, x1 = 0.2486	–	2.75 ± 0.06
[1], 328.15 K, x1 = 0.2973	–	2.95 ± 0.06
[1], 328.15 K, x1 = 0.3958	–	3.38 ± 0.07
[1], 328.15 K, x1 = 0.496	–	3.86 ± 0.08
[1], 328.15 K, x1 = 0.5967	–	4.38 ± 0.09
[1], 328.15 K, x1 = 0.6922	–	4.92 ± 0.1
[1], 328.15 K, x1 = 0.798	–	5.55 ± 0.11
[1], 328.15 K, x1 = 0.8997	–	6.21 ± 0.12
[1], 328.15 K, x1 = 0.9487	–	6.53 ± 0.13
[2], 288.15 K, x1 = 0.0981	746.25 ± 1.1	–
[2], 288.15 K, x1 = 0.1985	771.84 ± 0.99	–
[2], 288.15 K, x1 = 0.2459	784.06 ± 0.96	–
[2], 288.15 K, x1 = 0.2944	796.71 ± 0.93	–
[2], 288.15 K, x1 = 0.3937	822.83 ± 0.86	–
[2], 288.15 K, x1 = 0.4957	850.01 ± 0.8	–
[2], 288.15 K, x1 = 0.5957	876.93 ± 0.73	–
[2], 288.15 K, x1 = 0.6952	904 ± 0.68	–
[2], 288.15 K, x1 = 0.7937	931.06 ± 0.63	–
[2], 288.15 K, x1 = 0.9005	960.86 ± 0.59	–
[2], 288.15 K, x1 = 0.9494	974.71 ± 0.58	–
[2], 293.15 K, x1 = 0.1006	742.71 ± 1.1	–
[2], 293.15 K, x1 = 0.1961	766.97 ± 1	–
[2], 293.15 K, x1 = 0.2461	779.84 ± 0.97	–
[2], 293.15 K, x1 = 0.2982	793.34 ± 0.94	–
[2], 293.15 K, x1 = 0.3979	819.48 ± 0.87	–
[2], 293.15 K, x1 = 0.4995	846.49 ± 0.81	–
[2], 293.15 K, x1 = 0.5939	871.77 ± 0.75	–
[2], 293.15 K, x1 = 0.6986	900.11 ± 0.69	–
[2], 293.15 K, x1 = 0.7979	927.37 ± 0.64	–
[2], 293.15 K, x1 = 0.9022	956.37 ± 0.6	–
[2], 293.15 K, x1 = 0.95	969.87 ± 0.59	–
[2], 298.15 K, x1 = 0.1006	738.55 ± 1.1	–
[2], 298.15 K, x1 = 0.1961	762.73 ± 1	–
[2], 298.15 K, x1 = 0.2461	775.58 ± 0.98	–
[2], 298.15 K, x1 = 0.2982	789.07 ± 0.95	–
[2], 298.15 K, x1 = 0.3979	815.17 ± 0.88	–
[2], 298.15 K, x1 = 0.4995	842.12 ± 0.82	–
[2], 298.15 K, x1 = 0.5939	867.4 ± 0.76	–
[2], 298.15 K, x1 = 0.6986	895.69 ± 0.7	–
[2], 298.15 K, x1 = 0.7979	922.84 ± 0.65	–
[2], 298.15 K, x1 = 0.9022	951.81 ± 0.61	–
[2], 298.15 K, x1 = 0.95	965.31 ± 0.6	–
[2], 303.15 K, x1 = 0.0982	733.94 ± 1.1	–
[2], 303.15 K, x1 = 0.2002	759.61 ± 1	–
[2], 303.15 K, x1 = 0.2485	771.99 ± 0.99	–
[2], 303.15 K, x1 = 0.2996	785.17 ± 0.96	–
[2], 303.15 K, x1 = 0.3994	811.21 ± 0.89	–
[2], 303.15 K, x1 = 0.495	836.5 ± 0.83	–
[2], 303.15 K, x1 = 0.5989	864.2 ± 0.77	–
[2], 303.15 K, x1 = 0.6998	891.41 ± 0.71	–
[2], 303.15 K, x1 = 0.8005	918.9 ± 0.66	–
[2], 303.15 K, x1 = 0.8999	946.47 ± 0.62	–
[2], 303.15 K, x1 = 0.9499	960.53 ± 0.6	–
[2], 308.15 K, x1 = 0.0977	729.91 ± 1.1	–
[2], 308.15 K, x1 = 0.1975	754.98 ± 1	–
[2], 308.15 K, x1 = 0.2469	767.58 ± 1	–
[2], 308.15 K, x1 = 0.2964	780.35 ± 0.97	–
[2], 308.15 K, x1 = 0.3944	805.91 ± 0.91	–
[2], 308.15 K, x1 = 0.4956	832.62 ± 0.84	–
[2], 308.15 K, x1 = 0.5976	859.8 ± 0.78	–
[2], 308.15 K, x1 = 0.6967	886.45 ± 0.72	–
[2], 308.15 K, x1 = 0.7937	912.91 ± 0.67	–
[2], 308.15 K, x1 = 0.9021	942.91 ± 0.62	–
[2], 308.15 K, x1 = 0.9497	956.38 ± 0.61	–
[2], 318.15 K, x1 = 0.0998	722.15 ± 1.1	–
[2], 318.15 K, x1 = 0.1975	746.41 ± 1.1	–
[2], 318.15 K, x1 = 0.2484	759.29 ± 1	–
[2], 318.15 K, x1 = 0.3021	773.02 ± 1	–
[2], 318.15 K, x1 = 0.3883	795.32 ± 0.94	–
[2], 318.15 K, x1 = 0.4998	824.5 ± 0.87	–
[2], 318.15 K, x1 = 0.5991	850.79 ± 0.8	–
[2], 318.15 K, x1 = 0.6998	877.63 ± 0.74	–
[2], 318.15 K, x1 = 0.799	904.47 ± 0.69	–
[2], 318.15 K, x1 = 0.9009	932.54 ± 0.64	–
[2], 318.15 K, x1 = 0.9498	946.28 ± 0.63	–
[2], 328.15 K, x1 = 0.0998	713.9 ± 1.2	–
[2], 328.15 K, x1 = 0.1975	737.96 ± 1.1	–
[2], 328.15 K, x1 = 0.2484	750.75 ± 1.1	–
[2], 328.15 K, x1 = 0.3021	764.37 ± 1	–
[2], 328.15 K, x1 = 0.3883	786.52 ± 0.96	–
[2], 328.15 K, x1 = 0.4998	815.5 ± 0.89	–
[2], 328.15 K, x1 = 0.5991	841.63 ± 0.83	–
[2], 328.15 K, x1 = 0.6998	868.32 ± 0.76	–
[2], 328.15 K, x1 = 0.799	894.99 ± 0.71	–
[2], 328.15 K, x1 = 0.9009	922.95 ± 0.66	–
[2], 328.15 K, x1 = 0.95	936.74 ± 0.64	–
